Assay results from PubChem BioAssay (NCI).
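Where inhibition never reached the appropriate level, the endpoint shown equals the highest concentration tested. Otherwise, values were interpolated linearly from a five-concentration, 48-hour dose response in 96-well plates. TGI marks complete inhibition of growth.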 Where a SMILES comes first, the peptide text is derived from it. The star is where a group is joined. Cbz = O=C(OCc1ccccc1)*

Key:
Test in all cases: inhibition of tumour cell growth, NCI panel, 48 h
OVCAR-8 ovarian = tested on: OVCAR-8 ovarian
NCI-H522 lung = tested on: NCI-H522 lung
IGROV1 ovarian = tested on: IGROV1 ovarian
U251 CNS = tested on: U251 CNS
HS 578T breast = tested on: HS 578T breast
MCF7 breast = tested on: MCF7 breast
NCI-H226 lung = tested on: NCI-H226 lung
RPMI-8226 leukemia = tested on: RPMI-8226 leukemia
786-0 renal = tested on: 786-0 renal
HL-60(TB) leukemia = tested on: HL-60(TB) leukemia
CAKI-1 renal = tested on: CAKI-1 renal
NCI-H23 lung = tested on: NCI-H23 lung
BT-549 breast = tested on: BT-549 breast
HT29 colon = tested on: HT29 colon
A498 renal = tested on: A498 renal
SR leukemia = tested on: SR leukemia
SF-295 CNS = tested on: SF-295 CNS
UO-31 renal = tested on: UO-31 renal
RXF 393 renal = tested on: RXF 393 renal

Row | Compound | TGI (OVCAR-8 ovarian) [µM] | TGI (NCI-H522 lung) [µM] | TGI (IGROV1 ovarian) [µM] | TGI (U251 CNS) [µM] | TGI (HS 578T breast) [µM] | TGI (MCF7 breast) [µM] | TGI (NCI-H226 lung) [µM] | TGI (RPMI-8226 leukemia) [µM] | TGI (786-0 renal) [µM] | TGI (HL-60(TB) leukemia) [µM] | TGI (CAKI-1 renal) [µM] | TGI (NCI-H23 lung) [µM] | TGI (BT-549 breast) [µM] | TGI (HT29 colon) [µM] | TGI (A498 renal) [µM] | TGI (SR leukemia) [µM] | TGI (SF-295 CNS) [µM] | TGI (UO-31 renal) [µM] | TGI (RXF 393 renal) [µM]
1 | Cc1nc2ccccc2c(=O)n1/N=C/c1ccc(N(C)C)cc1 | > 100 | > 100 | > 100 | > 100 | 54 | > 100 | > 100 | > 100 | > 100 | > 100 | > 100 | > 100 | > 100 | > 100 | > 100 | > 100 | > 100 | – | –
2 | COc1cccc(C=C2N=C(C)N(n3c(-c4ccccc4)nc4ccccc4c3=O)C2=O)c1 | > 100 | > 100 | > 100 | – | > 100 | > 100 | > 100 | > 100 | > 100 | > 100 | > 100 | > 100 | > 100 | > 100 | > 100 | > 100 | > 100 | > 100 | –
3 | CC1CC(C(=O)OC2OC(COC3OC(CO)C(OC4OC(C)C(O)C(O)C4O)C(O)C3O)C(O)C(O)C2O)C2CCC3(C)C(=CCC4(C)C3CCC3C(C)(CO)C(O)C(O)CC34C)C2C1C (stereo not given) | 32.3 | 30.1 | 33.2 | 33.5 | 35.5 | 53 | 80.1 | 49.2 | 51.5 | 45.8 | > 100 | 33.3 | 32.3 | 41.1 | > 10 | 41 | 82.8 | > 100 | –
4 | COc1ccccc1/C=C/c1nc2ccccc2o1 | > 10 | > 10 | > 10 | > 10 | > 10 | > 10 | > 10 | > 10 | > 10 | – | > 10 | > 10 | > 10 | > 10 | > 10 | > 10 | > 10 | – | > 10
5 | CCOC(=O)CNC(=O)C(C)NC(=O)C(NC(=O)OCc1ccccc1)C(C)C (stereo not drawn) (Cbz-Val-Ala-Gly-OEt; configuration not given here) | > 100 | > 100 | > 100 | > 100 | > 100 | > 100 | – | > 100 | > 100 | – | > 100 | > 100 | > 100 | > 100 | – | > 100 | > 100 | > 100 | > 100
6 | S=C(c1c[nH]c2ccccc12)N1CCCCC1 | > 100 | – | > 100 | > 100 | > 100 | > 100 | > 100 | > 100 | > 100 | > 100 | > 100 | > 100 | > 100 | > 100 | > 100 | > 100 | > 100 | – | > 100
7 | COc1cc2cc(C(=O)N3CC(CCl)c4c3cc(O)c3ccccc43)[nH]c2c(OC)c1OC (stereo not given) | > 50 | 0.155 | – | 24.6 | < 0.005 | – | – | > 50 | 0.506 | < 0.005 | – | – | 9.94 | > 50 | 0.82 | > 50 | – | > 50 | < 0.005
8 | CC#CCCCC1(C)CCCNC1=S (stereo not given) | > 10 | > 10 | > 10 | > 10 | > 10 | > 10 | – | – | > 10 | > 10 | – | > 10 | > 10 | > 10 | – | > 10 | > 10 | > 10 | > 10
9 | CC(=O)OC(=C(C#N)C#N)c1nccnc1C(C)=O | > 20 | > 20 | > 20 | > 20 | > 20 | > 20 | 13.7 | – | > 20 | > 20 | > 20 | > 20 | > 20 | 8.94 | > 20 | > 20 | > 20 | > 20 | 15.7
10 | NC(=O)SCC(=O)Nc1ccc2ncccc2c1 | > 100 | 69.3 | > 100 | 48.7 | > 100 | > 100 | > 100 | 76.9 | 67.6 | > 100 | > 100 | > 100 | > 100 | > 100 | > 100 | > 100 | > 100 | > 100 | –
11 | NC(N)=NS(=O)(=O)c1ccc(NC(=O)c2ccc3nc4ccccc4c(N)c3c2)cc1 | > 100 | > 100 | > 100 | > 100 | > 100 | > 100 | > 100 | > 100 | > 100 | > 100 | > 100 | > 100 | > 100 | > 100 | – | > 100 | > 100 | > 100 | > 100
12 | Cc1nn(-c2ccccc2)c2nc3ccc(Cl)cc3c(-c3ccccc3)c12 | > 100 | > 100 | > 100 | > 100 | > 100 | > 100 | > 100 | > 100 | > 100 | – | – | > 100 | > 100 | > 100 | – | > 100 | > 100 | > 100 | –
13 | NC(=S)N/N=C1\CCCCC1C(O)(C(F)(F)Cl)C(F)(F)Cl (stereo not given) | > 10 | > 10 | > 10 | > 10 | > 10 | > 10 | > 10 | > 10 | > 10 | > 10 | – | > 10 | > 10 | > 10 | > 10 | – | > 10 | – | > 10
